One experiment addresses T1, SaBphP2-PCM (Allostigmatella aurantiaca, UniProt Q09E27).
T1 construct: gene STIAU_8420; photosensory core module (PAS-GAF-PHY), lacks C-terminal effector (histidine kinase) domain; recombinant; homodimer
T1 sequence (Q09E27 1-490): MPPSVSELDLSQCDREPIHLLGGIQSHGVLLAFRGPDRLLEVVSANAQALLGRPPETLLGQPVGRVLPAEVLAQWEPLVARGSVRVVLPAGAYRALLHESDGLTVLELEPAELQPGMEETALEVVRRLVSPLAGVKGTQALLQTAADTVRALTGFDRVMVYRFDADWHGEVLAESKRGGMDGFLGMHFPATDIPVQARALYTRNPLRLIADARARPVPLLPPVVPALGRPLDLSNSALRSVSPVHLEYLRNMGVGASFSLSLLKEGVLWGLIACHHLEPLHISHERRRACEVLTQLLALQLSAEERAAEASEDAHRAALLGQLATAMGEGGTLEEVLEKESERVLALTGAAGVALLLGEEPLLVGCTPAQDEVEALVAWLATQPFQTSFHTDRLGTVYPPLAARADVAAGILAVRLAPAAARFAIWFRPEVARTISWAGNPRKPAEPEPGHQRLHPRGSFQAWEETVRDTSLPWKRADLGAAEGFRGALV
In words: serial synchrotron X-ray crystallography (room temperature). Particulars: covalent; chromophore; dark Pr state, 2.1 A refinement; also difference map 700 ms after 640 nm light. The format is binding.

For experiment [1], the target named is T2, photoactive yellow protein (PYP) (Halorhodospira halophila, UniProt P16113).
T2 construct: full length, 125 amino acids, 14 kDa; overexpressed in Escherichia coli; chromophore attached to the conserved cysteine
T2 sequence (P16113 1-125): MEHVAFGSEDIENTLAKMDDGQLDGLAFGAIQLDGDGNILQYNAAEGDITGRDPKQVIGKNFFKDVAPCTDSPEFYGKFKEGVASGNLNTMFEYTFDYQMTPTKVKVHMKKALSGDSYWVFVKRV
The experiment is described as above. The format is binding. Particulars: covalent; thioester to conserved cysteine; space group P6_5, 1.8 A (fixed target) and 1.9 A (tape drive); PEG 4000, MES pH 6.5.

For the molecule `C=CC1=C(C)/C(=C/C2=NC(=C\c3[nH]c(/C=C4\NC(=O)C(C)=C4C=C)c(C)c3CCC(=O)O)/C(CCC(=O)O)=C2C)NC1=O` [biliverdin], the “serial synchrotron X-ray crystallography (room temperature)” value at SaBphP2-PCM is “The DED features, localized to the BV chromophore, indicate displacement of the BV”.
Regarding `O=C(O)/C=C/c1ccc(O)cc1` [p-coumaric acid], in experiment [1], the “serial synchrotron X-ray crystallography (room temperature)” value is on record as “The pCA chromophore pocket is marked by the red box”.

(Values after article PMC11707700, “Exploiting fourth-generation synchrotron radiation for enzyme and photoreceptor characterization” (IUCrJ, 2025).)
